Among the data in BindingDB's records for doi:10.1021/bi0500628 (Merck Research Laboratories, 2005) are IC50 values, retold here.

A word on the IC50: it is the concentration needed to halve the response being measured.

The target of one assay is Insulin receptor (Homo sapiens, UniProt P06213). The assay is described as follows: Homogeneous Time-Resolved Fluorescence (HTRF) Assay. The note with it: pH 7.4; 22 °C. An excerpt: (§1) The assay uses purified enzyme interacting with biotinylated peptide substrate.HTRF is based on the proximity of europium cryptate (donor fluorophore)-labeled antiphosphotyrosine and streptavidin labeled with APC (allophycocyanin), which have been brought together by a binding reaction. When the two entities come into close proximity and upon excitation, energy transfer occurs and APC re-emits at 665 nm. Relative fluorescence units were read on a Discovery plate reader (Packard). The IC50 values for inhibitors were determined by a four-parameter sigmoidal curve fit.
Sequence of Insulin receptor (P06213 28-758 limits assumed): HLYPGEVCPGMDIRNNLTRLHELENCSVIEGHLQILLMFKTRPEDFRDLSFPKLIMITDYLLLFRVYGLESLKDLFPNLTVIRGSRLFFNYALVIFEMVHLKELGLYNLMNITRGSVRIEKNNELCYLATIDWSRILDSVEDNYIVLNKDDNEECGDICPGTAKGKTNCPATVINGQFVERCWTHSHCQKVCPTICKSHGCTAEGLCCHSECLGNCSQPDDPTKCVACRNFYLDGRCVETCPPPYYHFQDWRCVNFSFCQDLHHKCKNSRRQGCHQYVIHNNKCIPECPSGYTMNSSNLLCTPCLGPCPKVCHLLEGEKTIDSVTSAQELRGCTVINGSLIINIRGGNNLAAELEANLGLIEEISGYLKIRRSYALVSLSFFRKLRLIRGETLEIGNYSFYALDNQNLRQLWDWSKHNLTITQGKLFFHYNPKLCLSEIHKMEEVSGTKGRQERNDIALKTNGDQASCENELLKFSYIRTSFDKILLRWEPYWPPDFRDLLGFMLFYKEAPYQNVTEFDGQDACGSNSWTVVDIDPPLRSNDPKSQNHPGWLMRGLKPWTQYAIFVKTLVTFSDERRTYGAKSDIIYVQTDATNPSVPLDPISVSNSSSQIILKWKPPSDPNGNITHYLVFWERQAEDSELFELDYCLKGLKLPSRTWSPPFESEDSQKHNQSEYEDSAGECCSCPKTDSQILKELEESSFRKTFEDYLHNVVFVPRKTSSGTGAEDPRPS
Sequence of Insulin receptor (P06213 763-1382 limits assumed): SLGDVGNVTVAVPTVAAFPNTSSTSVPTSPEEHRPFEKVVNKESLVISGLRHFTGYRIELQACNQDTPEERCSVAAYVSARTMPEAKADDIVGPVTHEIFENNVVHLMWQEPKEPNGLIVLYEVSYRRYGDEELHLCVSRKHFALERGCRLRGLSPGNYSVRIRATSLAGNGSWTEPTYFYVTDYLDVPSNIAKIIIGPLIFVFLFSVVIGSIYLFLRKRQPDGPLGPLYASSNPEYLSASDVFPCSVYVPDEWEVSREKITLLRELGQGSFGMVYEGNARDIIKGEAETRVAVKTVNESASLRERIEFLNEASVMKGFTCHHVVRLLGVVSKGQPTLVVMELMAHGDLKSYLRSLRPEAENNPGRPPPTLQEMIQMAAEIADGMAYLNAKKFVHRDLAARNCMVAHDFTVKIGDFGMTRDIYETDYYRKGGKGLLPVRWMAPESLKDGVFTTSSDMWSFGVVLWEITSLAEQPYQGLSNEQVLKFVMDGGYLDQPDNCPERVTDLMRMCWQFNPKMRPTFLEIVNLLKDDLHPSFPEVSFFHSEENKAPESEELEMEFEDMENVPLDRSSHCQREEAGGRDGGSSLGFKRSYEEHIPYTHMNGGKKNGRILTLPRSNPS

Assay [1] has as its target Insulin-like growth factor 1 receptor (Homo sapiens, UniProt P08069). The assay is described as above. The following applies: pH 7.4; 22 °C.
Source text: as §1

Sequence of Insulin-like growth factor 1 receptor (P08069 31-736 limits assumed): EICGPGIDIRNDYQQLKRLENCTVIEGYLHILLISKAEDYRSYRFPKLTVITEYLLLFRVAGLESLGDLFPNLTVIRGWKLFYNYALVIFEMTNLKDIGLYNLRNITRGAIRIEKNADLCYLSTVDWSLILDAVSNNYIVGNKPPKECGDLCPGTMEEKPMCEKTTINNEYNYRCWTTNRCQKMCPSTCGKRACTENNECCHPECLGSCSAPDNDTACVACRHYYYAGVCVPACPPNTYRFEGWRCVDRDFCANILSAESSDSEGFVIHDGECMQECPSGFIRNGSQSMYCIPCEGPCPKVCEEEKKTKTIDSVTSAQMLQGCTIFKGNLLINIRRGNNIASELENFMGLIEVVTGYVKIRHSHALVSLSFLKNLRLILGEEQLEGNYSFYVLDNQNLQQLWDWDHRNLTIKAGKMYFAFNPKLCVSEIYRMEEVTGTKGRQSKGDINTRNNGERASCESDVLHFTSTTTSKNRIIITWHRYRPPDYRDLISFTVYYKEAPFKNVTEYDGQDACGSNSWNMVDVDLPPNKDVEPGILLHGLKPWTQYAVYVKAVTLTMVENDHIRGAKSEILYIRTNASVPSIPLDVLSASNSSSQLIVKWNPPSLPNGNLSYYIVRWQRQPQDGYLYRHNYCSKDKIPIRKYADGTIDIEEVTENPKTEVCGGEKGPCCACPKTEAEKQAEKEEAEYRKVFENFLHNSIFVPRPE
Sequence of Insulin-like growth factor 1 receptor (P08069 741-1367 limits assumed): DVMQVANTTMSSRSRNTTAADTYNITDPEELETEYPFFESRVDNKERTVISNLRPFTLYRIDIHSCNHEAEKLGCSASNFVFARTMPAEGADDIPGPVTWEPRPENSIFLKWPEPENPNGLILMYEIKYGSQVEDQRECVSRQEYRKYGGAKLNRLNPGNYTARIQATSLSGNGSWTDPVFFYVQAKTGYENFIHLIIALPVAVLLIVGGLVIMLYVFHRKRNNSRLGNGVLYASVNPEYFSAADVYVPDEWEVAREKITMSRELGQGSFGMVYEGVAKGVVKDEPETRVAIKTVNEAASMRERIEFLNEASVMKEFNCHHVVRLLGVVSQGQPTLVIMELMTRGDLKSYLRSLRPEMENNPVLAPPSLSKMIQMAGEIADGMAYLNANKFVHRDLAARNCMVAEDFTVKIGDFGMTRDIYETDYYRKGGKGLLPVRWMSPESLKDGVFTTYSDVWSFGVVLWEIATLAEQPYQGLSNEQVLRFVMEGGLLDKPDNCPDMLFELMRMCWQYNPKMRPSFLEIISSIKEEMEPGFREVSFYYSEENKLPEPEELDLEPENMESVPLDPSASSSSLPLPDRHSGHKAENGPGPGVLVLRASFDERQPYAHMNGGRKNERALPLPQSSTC

Regarding `CCOC(=O)c1[nH]c(CO)c(C(=O)OCC)c1C` [2,4-diethyl 5-(hydroxymethyl)-3-methyl-1H-pyrrole-2,4-dicarboxylate], the 50% inhibitory concentration (IC50) (against Insulin receptor; in assay [1]) was more than 100 µM throughout.

With `CCOC(=O)c1c(C=O)[nH]c(C(=O)OC(C)(C)C)c1CC` [2-tert-Butyl 4-Ethyl 3-Ethyl-5-formyl-1H-pyrrole-2,4-dicarboxylate], the IC50 was determined as 2 µM against Insulin receptor and 0.49 µM in assay [1].

As for `CCOC(=O)c1[nH]c(C=O)c(C(=O)OCC)c1CC` [2,4-diethyl 3-ethyl-5-formyl-1H-pyrrole-2,4-dicarboxylate], the 50% inhibitory concentration (IC50) at Insulin receptor amounted to 5.4 µM; in assay [1] it was 1.1 µM.

Regarding `CCOC(=O)c1c(CC)c(C(=O)OC(C)(C)C)n(C)c1C=O` [2-tert-Butyl 4-Ethyl 3-Ethyl-5-formyl-1-methyl-1H-pyrrole-2,4-dicarboxylate], the 50% inhibitory concentration (IC50) is 12 µM on Insulin receptor and 4.3 µM in assay [1].

For `COC(=O)[C@]1(O)C[C@@H]2O[C@@]1(C)n1c3ccccc3c3c4c(c5c6ccccc6n2c5c31)C(=O)NC4` [methyl (15R,16S,18S)-16-hydroxy-15-methyl-3-oxo-28-oxa-4,14,19-triazaoctacyclo[12.11.2.1^{15,18}.0^{2,6}.0^{7,27}.0^{8,13}.0^{19,26}.0^{20,25}]octacosa-1(26),2(6),7(27),8(13),9,11,20(25),21,23-nonaene-16-carboxylate], the concentration for half-maximal inhibition (IC50) was found to be 0.21 µM against Insulin receptor and 0.47 µM in assay [1].

`CCOC(=O)c1[nH]c(C=O)c(C(=O)OCC)c1C` [2,4-diethyl 5-formyl-3-methyl-1H-pyrrole-2,4-dicarboxylate]: the concentration for half-maximal inhibition (IC50) is 12 µM on Insulin receptor and 2.7 µM in assay [1].

With `CCN(CC)C(=O)c1[nH]c(C=O)c(C(=O)N(CC)CC)c1C` [N,N,N,N-Tetraethyl-5-formyl-3-methyl-1H-pyrrole-2,4-dicarboxamide], the IC50 (at Insulin receptor; in assay [1]) was more than 100 µM in each case.

On to `CCOC(=O)c1c(C=O)[nH]c(C(=O)NC(C)(C)C)c1CC` [ethyl 5-(tert-butylcarbamoyl)-4-ethyl-2-formyl-1H-pyrrole-3-carboxylate], for which the 50% inhibitory concentration (IC50) stood at 17 µM at Insulin receptor and 2.6 µM in assay [1].
